# Legend:
# [1] = Toxicity to transfected COS cells in the transcription assay; format: cell-based; settings: monkey, GR/PPAR transcription assay, read-out: Concentrations toxic to the cells
# Procedure: The ligand transcription assay mediated by GR/PPAR in COS cells was performed as described in Example 4. The cells were treated with TOFA and Cerulenin at 0.1, 1, 10 and 100 μM. Concentrations of cerulenin above 10 μM were toxic to the cells.
# [2] = biological target: T1, GR/PPAR chimeric receptor (Mus musculus, UniProt P23204); experiment: Ligand dependent transcription assay, GR/PPAR chimeric receptor with MMTV-luciferase reporter; format: cell-based
# T1 construct: COS cells, MMTV-luciferase
# T1 sequence (P23204 1-468): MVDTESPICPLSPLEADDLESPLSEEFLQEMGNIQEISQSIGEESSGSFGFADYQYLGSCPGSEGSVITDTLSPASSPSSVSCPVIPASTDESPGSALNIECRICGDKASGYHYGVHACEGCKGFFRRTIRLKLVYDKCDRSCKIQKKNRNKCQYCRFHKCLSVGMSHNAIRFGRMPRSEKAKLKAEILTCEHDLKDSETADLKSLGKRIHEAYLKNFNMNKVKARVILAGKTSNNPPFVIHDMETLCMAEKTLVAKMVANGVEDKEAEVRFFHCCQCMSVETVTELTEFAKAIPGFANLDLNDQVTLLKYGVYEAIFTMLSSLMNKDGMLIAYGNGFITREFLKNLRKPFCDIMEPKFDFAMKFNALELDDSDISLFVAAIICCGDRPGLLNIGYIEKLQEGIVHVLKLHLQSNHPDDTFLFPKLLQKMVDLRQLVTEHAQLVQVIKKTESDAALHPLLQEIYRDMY
# T1 sequence (P06537 1-792 partner): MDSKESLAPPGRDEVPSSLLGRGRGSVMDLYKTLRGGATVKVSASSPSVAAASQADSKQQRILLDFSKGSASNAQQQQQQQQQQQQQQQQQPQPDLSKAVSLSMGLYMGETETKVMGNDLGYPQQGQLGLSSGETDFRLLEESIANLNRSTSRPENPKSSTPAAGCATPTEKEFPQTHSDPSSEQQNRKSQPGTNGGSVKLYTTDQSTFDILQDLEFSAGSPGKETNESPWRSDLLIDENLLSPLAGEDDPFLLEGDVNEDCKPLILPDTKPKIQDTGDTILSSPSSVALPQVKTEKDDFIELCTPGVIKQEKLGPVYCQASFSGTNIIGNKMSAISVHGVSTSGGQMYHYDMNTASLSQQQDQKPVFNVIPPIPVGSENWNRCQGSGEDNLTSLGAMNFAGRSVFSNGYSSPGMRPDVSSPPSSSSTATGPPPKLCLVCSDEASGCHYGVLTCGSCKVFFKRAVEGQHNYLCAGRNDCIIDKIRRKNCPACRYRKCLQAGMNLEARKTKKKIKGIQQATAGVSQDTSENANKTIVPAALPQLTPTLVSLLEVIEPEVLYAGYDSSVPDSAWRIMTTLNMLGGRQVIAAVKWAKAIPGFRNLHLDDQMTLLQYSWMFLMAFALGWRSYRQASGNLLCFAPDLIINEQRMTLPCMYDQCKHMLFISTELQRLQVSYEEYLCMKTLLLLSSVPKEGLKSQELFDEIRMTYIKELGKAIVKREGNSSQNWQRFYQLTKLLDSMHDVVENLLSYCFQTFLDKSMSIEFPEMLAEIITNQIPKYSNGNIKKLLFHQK
# Procedure: Similar hybrid receptors GR/NER, GR/NUC and GR/PPAR, in identical expression plasmid backgrounds were prepared essentially as described for the construction of the GR/mPPAR and GR/NUC chimeric receptors in Schmidt et al., "Identification of a new member of the steroid hormone receptor superfamily that is activated by a peroxisome proliferator and fatty acids," Mol. Endocrinol., 6(10):1634-41, 1992, and in Boie et al., "Enantioselective activation of the peroxisome proliferator-activated receptor", J. Biol. Chem. 268(8):5530-4, 1993.
# Briefly, the amino terminal portion of the mouse glucocorticoid receptor (mGR), that includes the DNA binding domain was fused to the putative ligand binding domains of the nuclear receptor NER, hNUC-I (Schmidt et al., 1992), mPPAR (Issenmann and Green, 1990) to form the respective chimeric receptors GR/NER, GR/NUC and GR/PPAR. The GR/NER chimeric receptor was constructed as described for the GR/NUC and GR/PPAR hybrid receptors (Schmidt et al., 1992; Boie et al). The cDNA sequences coding for amino acids Arg^155 and Glu^156 of the NER receptor were converted to the Xho I restriction site, that was later used for the ligation to the GR cDNA sequences that coded for the DNA binding domain. Thus, converting amino acid residues Arg^155 and Glu^156 of NER receptor to amino acid residues Ser^155 and His^156.
# The ligand transcription assay mediated by GR/PPAR in COS cells was performed as described in Example 4. The cells were treated with TOFA and Cerulenin at 0.1, 1, 10 and 100 μM.
# GR/NER chimeric receptor = experiment: Activation of GR/NER in CV1 cells (luciferase); settings: for Fold of stimulation GR/NER, Control: without dopamine
# Procedure: The ligand dependent transcription assays were performed as described in Example 4, using CV1 cells in place of COS cells. The transfected CV1 cells were treated with dopamine, TOFA, or with a combination of TOFA and dopamine at the indicated concentrations and tested for luciferase activity.
# CV1 cells were co-transfected with the MMTV-Luciferase reporter gene (pJA358) and the GR/NER chimeric receptor as described in Example 4. The cells were treated with increasing amount of the dopamine D1 receptor antagonist SCH 23390 with or without 50 μM […] dopamine.
# [3] = tested on: Dopamine D1 receptor antagonist (SCH 23390) induced catalepsy; experiment: SCH 23390 induced catalepsy (Bar method); format: in vivo, rat; settings: carrier pretreatment, 24 h later 0.5 mg/kg SCH23390
# Procedure: Rats were pretreated with 0.4 mg/kg TOFA or with carrier (S.C.). Twenty-four hours later, the rats were challenged with 0.5 mg/kg SCH23390, a Dopamine D1 antagonist, and the duration of catalepsy was monitored.
# (§1) Catalepsy was determined by a modification of the Bar method (Undie and Friedman, 1988). A steel bar, 1.1 cm in diameter and 50 cm long, was suspended at a height of 10 cm above the working surface. Three sides of the bench around the bar were walled off with brown cardboard, and the linings on the bench surface were selected to be of the same color with the cardboard walls. The animal's hind limbs were freely placed on the bench, the fail laid out to the back, and the forelimbs placed over the bar. The length of time a rat stayed up on the bar was noted up to a preset cut-off point of 120 s. The time was counted off upon observing any of the following actions: (1) the animal came off, placing its two forepaws on the bench, (2) the animal climbed onto or over the bar with both hind limbs, (3) the animal initiated locomotion along or around the bar. Subsequently, time readings were translated into scores by awarding a score of 1 for each successfully completed 5 s on the bar. For each observation time, catalepsy scores were averaged for all the animals in a group to give the Mean Score of the group at that observation time. Further, the scores for each animal at all the observation times were added to give the total score for that animal. The mean of this last group of numbers was called the Mean Total Score of the group.
# (§2) Catalepsy scores were analyzed by computer in accordance with the statistical procedures outlined by Winer, B. J.: Statistical principles in experimental design. McGraw-Hill, New York, pp. 10-428, 1971. Generally, for a given set of comparisons, observations were subjected to an appropriate analysis of variance followed by two-tailed Dunnett or Student's t-tests to detect differences between treatment groups.
# [4] = chronic treatment, medial cholinergic pathway lesions; cited from earlier work
# [5] = tested on: Muscarinic receptor agonist (Pilocarpine) induced catalepsy; experiment: Pilocarpine induced catalepsy (Bar method); format: in vivo, rat; settings: carrier pretreatment, 24 h later 16 mg/kg Pilocarpine
# Procedure: as §1, §2
# Rats were pretreated with 0.4 mg/kg TOFA or with carrier (S.C.). Twenty-four hours later, the rats were challenged with 16 mg/kg Pilocarpine, an agonist of the muscarinic cholinergic receptor, and the duration of catalepsy was monitored as described in Example 10.
compound,measurement,setting,value
"C/C=C/C/C=C/CCC(=O)[C@H]1O[C@H]1C(N)=O [Cerulenin, cerulenin, reference compound]",MCC,[1],> 10 µM
same,Expression mediated by GR/PPAR,[2],did not stimulate transcription
same,fold induction at 0.1 µM,"[2]; 0.1 μM, COS cells, Table 2, read-out: Fold of stimulation GR/PPAR",1.03 ± 0.12
same,fold induction at 1 µM,"[2]; 1.0 μM, COS cells, Table 2, read-out: Fold of stimulation GR/PPAR",1.13 ± 0.05
same,fold induction at 10 µM,"[2]; 10.0 μM, COS cells, Table 2, read-out: Fold of stimulation GR/PPAR",0.58 ± 0.11
"CN1CCc2cc(Cl)c(O)cc2C(c2ccccc2)C1 (single isomer, unassigned) [SCH-23390, 8-chloro-2,3,4,5-tetrahydro-3-methyl-5-phenyl-1H-3-benzazepin-7-ol hemimaleate]",Effect on transcription mediated by GR/NER in CV1 cells,GR/NER chimeric receptor,stimulated the transcription
same,Effect on inhibition of luciferase expression caused by dopamine,GR/NER chimeric receptor; 50 μM dopamine,can reverse the inhibition of luciferase expression
same,"Fold of stimulation GR/NER, Dopamine (50 μM)",GR/NER chimeric receptor; SCH-23390 0.1 μM with 50 μM dopamine,0.59 ± 0.06 fold
same,"Fold of stimulation GR/NER, Control",GR/NER chimeric receptor; SCH-23390 0.1 μM,1.32 ± 0.15 fold
same,"Fold of stimulation GR/NER, Dopamine (50 μM)",GR/NER chimeric receptor; SCH-23390 1.0 μM with 50 μM dopamine,0.55 ± 0.09 fold
same,"Fold of stimulation GR/NER, Control",GR/NER chimeric receptor; SCH-23390 1.0 μM,1.22 ± 0.11 fold
same,"Fold of stimulation GR/NER, Dopamine (50 μM)",GR/NER chimeric receptor; SCH-23390 10.0 μM with 50 μM dopamine,0.83 ± 0.12 fold
same,"Fold of stimulation GR/NER, Control",GR/NER chimeric receptor; SCH-23390 10.0 μM,1.64 ± 0.38 fold
same,"Fold of stimulation GR/NER, Dopamine (50 μM)",GR/NER chimeric receptor; SCH-23390 100 μM with 50 μM dopamine,2.61 ± 0.86 fold
same,"Fold of stimulation GR/NER, Control",GR/NER chimeric receptor; SCH-23390 100 μM,2.38 ± 0.19 fold
same,Catalepsy Duration,[3],3.1 ± 1.3 s
same,Radial-arm maze performance,[4],reversed the lesion-induced impaired performance
"CC[C@@H]1C(=O)OC[C@@H]1Cc1cncn1C [Pilocarpine, pilocarpine, reference compound]",Catalepsy Duration,[5],27.3 ± 3.6 s

# From patent US5607967A, “Treatment of alzheimer's disease with 5-(tetradecyloxy)-2-furan carboxylic acid” (Merck & Co., Inc., priority 1994, dated 1997)
